Assay results taken from patent US9255090B2, “Heterocyclyl derivatives and their use as prostaglandin D2 receptor modulators” (Actelion Pharmaceuticals Ltd., priority 2012, dated 2016).

Target: hCRTH2 receptor (Homo sapiens (Human), UniProt Q9Y5Y4)
Assay: hCRTH2 receptor membranes radioligand (3H-PGD2) displacement assay
Format: binding
Details: 3H-PGD2 radioligand displacement, HEK293-hCRTH2 membranes
Protocol: Biological Assays: Preparation of hCRTH2 Receptor Membranes and Radioligand Displacement Assay:
First, recombinant HEK293-hCRTH2 cells were detached from culture plates into 5 ml buffer A/plate (Buffer A: 5 mM Tris, 1 mM MgCl2-6H2O pH=7.4) using a rubber policeman. Cells were then transferred into centrifugation tubes and centrifuged for 5 min at 400 g. The cell pellet was resuspended in the same buffer and tubes were frozen at −80° C. Cells were thawed and membrane fragments were generated by homogenization using a polytron homogenizer (30 seconds). The membrane fragments were then centrifuged at 3000 g for 20 minutes and resuspended in buffer C (Buffer C: 75 mM Tris, 25 mM MgCl2, 250 mM Saccharose pH 7.4). Aliquots of membrane fragments were stored at −20° C.
Binding assay was performed in a final assay volume of 250 μl. First, 25 μl of test compound, previously diluted in Binding-Buffer (Binding-Buffer: 50 mM Tris-Base, 100 mM NaCl, 1 mM EDTA, 0.1% BSA (protease free), 0.01% NaN3, 10 mM MnCl2, pH 7.0) was placed into each well. After addition of 75 μl Binding-Buffer, 50 μl of the radioligand ^3H-PGD2 (at 2.5 nM (220.000 dpm/well) from ANAWA ART0662) was added to each well. Binding assay was started by addition of 100 μl CRTH2 membrane fragments, reaching a final concentration of 20 μg/well. For non-specific binding, PGD2 was added to the reaction mixture to […] final concentration. This assay mix was incubated for 90 minutes at room temperature and then filtered through a GF/C filter 96-well plate which was pre-soaked for 3 hours in 0.5% polyethyleneimine (PEI). The filter-wells were washed three times with ice cold Binding-Buffer. Then, 40 μl of Microscint-40 (Packard) was added to each well and the retained radioactivity quantified in a Topcount (Packard).

Chain of hCRTH2 receptor (Q9Y5Y4 whole entry): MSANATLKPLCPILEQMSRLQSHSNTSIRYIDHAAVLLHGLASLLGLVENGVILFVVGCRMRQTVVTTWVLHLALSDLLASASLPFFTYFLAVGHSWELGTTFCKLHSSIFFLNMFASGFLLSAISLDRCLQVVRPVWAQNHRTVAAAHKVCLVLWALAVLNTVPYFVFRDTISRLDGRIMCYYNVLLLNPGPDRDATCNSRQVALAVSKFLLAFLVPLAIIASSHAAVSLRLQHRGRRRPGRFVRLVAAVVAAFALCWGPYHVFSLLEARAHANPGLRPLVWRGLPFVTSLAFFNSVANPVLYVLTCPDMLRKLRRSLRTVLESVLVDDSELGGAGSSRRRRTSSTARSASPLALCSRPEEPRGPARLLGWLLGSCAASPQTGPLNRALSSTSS

Row | SMILES | IC50
1 | COc1ccc(CC(=O)O)cc1-c1ccc(F)c2c1CCN(C(=O)CCc1cn(C)c3ccccc13)C2 [Example 105, (3-{8-Fluoro-2-[3-(1-methyl-1H-indol-3-yl)-propionyl]-1,2,3,4-tetrahydro-isoquinolin-5-yl}-4-methoxy-phenyl)-acetic acid] | 17.7 nM
2 | COc1ccc(CC(=O)O)cc1-c1ccc(F)c2c1CN(C(=O)C1CCOc3ccccc31)CC2 (racemic) [Example 272] | 262 nM
3 | CCOc1ccc(CC(=O)O)cc1-c1ccc(F)c2c1CN(C(=O)OCC=C(C)C)CC2 [Example 375, 8-(5-Carboxymethyl-2-ethoxy-phenyl)-5-fluoro-3,4-dihydro-1H-isoquinoline-2-carboxylic acid 3-methyl-but-2-enyl ester] | 8.7 nM
4 | COc1ccc(CC(=O)O)cc1-c1ccc(F)c2c1CN(C(=O)CC1Cc3ccccc3C1)CC2 [Example 111, {3-[5-Fluoro-2-(2-indan-2-yl-acetyl)-1,2,3,4-tetrahydro-isoquinolin-8-yl]-4-methoxy-phenyl}-acetic acid] | 8.11 nM
5 | CCOc1cc(CC(=O)O)ccc1-c1ccc(F)c2c1CN(C(=O)CC1COc3ccccc3C1)CC2 (racemic) [Example 324] | 0.9 nM
6 | CCOc1cc(CC(=O)O)ccc1-c1ccc(F)c2c1CN(C(=O)CC(CC)c1ccccn1)CC2 (racemic) [Example 313] | 7.8 nM
7 | CC(C)Oc1ccc(CC(=O)O)cc1-c1ccc(F)c2c1CN(C(=O)CC1OCCc3ccccc31)CC2 (racemic) [Example 297] | 1.9 nM
8 | CC(C)Oc1cc(CC(=O)O)ccc1-c1ccc(F)c2c1CN(C(=O)C[C@H](C)c1ccccc1)CC2 [Example 355, {4-[5-Fluoro-2-((S)-3-phenyl-butyryl)-1,2,3,4-tetrahydro-isoquinolin-8-yl]-3-isopropoxy-phenyl}-acetic acid] | 10.3 nM
9 | COc1ccc(CC(=O)O)cc1-c1ccc(F)c2c1CCN(C(=O)CCN1CCCc3ccccc31)C2 [Example 104, {3-[2-(3-3,4-Dihydro-2H-quinolin-1-yl-propionyl)-8-fluoro-1,2,3,4-tetrahydro-isoquinolin-5-yl]-4-methoxy-phenyl}-acetic acid] | 21.3 nM
10 | CCOc1cc(CC(=O)O)ccc1-c1ccc(F)c2c1CN(C(=O)OCc1ccnn1C)CC2 [Example 388, 8-(4-Carboxymethyl-2-ethoxy-phenyl)-5-fluoro-3,4-dihydro-1H-isoquinoline-2-carboxylic acid 2-methyl-2H-pyrazol-3-ylmethyl ester] | 3.8 nM
11 | COc1ccc(CC(=O)O)cc1-c1ccc(F)c2c1CN(C(=O)C1C(C)(C)C1(C)C)CC2 [Example 50, {3-[5-Fluoro-2-(2,2,3,3-tetramethyl-cyclopropanecarbonyl)-1,2,3,4-tetrahydro-isoquinolin-8-yl]-4-methoxy-phenyl}-acetic acid] | 267 nM
12 | CC(C)Oc1ccc(CC(=O)O)cc1-c1ccc(F)c2c1CN(C(=O)CC1COc3ccccc31)CC2 (racemic) [Example 298] | 1.2 nM
13 | CCOc1cc(CC(=O)O)ccc1-c1ccc(F)c2c1CN(C(=O)CC(C)c1cccc(C)n1)CC2 (racemic) [Example 320] | 11.7 nM
14 | COc1ccc(CC(=O)O)cc1-c1ccc(F)c2c1CN(C(=O)NCc1ccccc1Cl)CC2 [Example 134, {3-[2-(2-Chloro-benzylcarbamoyl)-5-fluoro-1,2,3,4-tetrahydro-isoquinolin-8-yl]-4-methoxy-phenyl}-acetic acid] | 21.5 nM
15 | CCOc1cc(C(C)C(=O)O)ccc1-c1ccc(F)c2c1CN(C(=O)OCc1ccccc1)CC2 (racemic) [Example 425] | 11.3 nM
16 | COc1ccc(CC(=O)O)cc1-c1ccc(F)c2c1CN(C(=O)OCc1ccnn1C)CC2 [Example 148, 8-(5-Carboxymethyl-2-methoxy-phenyl)-5-fluoro-3,4-dihydro-1H-isoquinoline-2-carboxylic acid 2-methyl-2H-pyrazol-3-ylmethyl ester] | 51.6 nM
17 | COc1ccc(CC(=O)O)cc1-c1ccc(F)c2c1CN(C(=O)/C=C/c1ccccc1)CC2 [Example 85, (3-{5-Fluoro-2-[(E)-(3-phenyl-acryloyl)]-1,2,3,4-tetrahydro-isoquinolin-8-yl}-4-methoxy-phenyl)-acetic acid] | 35.8 nM
18 | CCOc1cc(CC(=O)O)ccc1-c1ccc(F)c2c1CN(C(=O)CC1CCOc3cc(F)ccc31)CC2 (racemic) [Example 327] | 0.2 nM

Row | SMILES | IC50
19 | O=C(O)Cc1ccc(-c2ccc(F)c3c2CN(C(=O)OCc2ccccc2)CC3)cc1Cl [Example 40, 8-(4-Carboxymethyl-3-chloro-phenyl)-5-fluoro-3,4-dihydro-1H-isoquinoline-2-carboxylic acid benzyl ester] | 29.1 nM
20 | O=C(O)COc1ccc(Cl)c(-c2ccc(C(F)(F)F)c3c2CN(C(=O)OCc2ccccc2)CC3)c1 [Example 180, 8-(5-Carboxymethoxy-2-chloro-phenyl)-5-trifluoromethyl-3,4-dihydro-1H-isoquinoline-2-carboxylic acid benzyl ester] | 208 nM
21 | COc1ccc(CC(=O)O)cc1-c1ccc(F)c2c1CN(C(=O)C[C@H](C)c1ccccc1)CC2 [Example 107, {3-[5-Fluoro-2-((S)-3-phenyl-butyryl)-1,2,3,4-tetrahydro-isoquinolin-8-yl]-4-methoxy-phenyl}-acetic acid] | 18.3 nM
22 | CCOc1ccc(CC(=O)O)cc1-c1ccc(F)c2c1CN(C(=O)CC(CC)c1ccccn1)CC2 (racemic) [Example 308] | 13.1 nM
23 | Cc1cccc(CCC(=O)N2CCc3c(F)ccc(-c4cc(CC(=O)O)ccc4OCC(F)(F)F)c3C2)n1 [Example 304, [3-{5-Fluoro-2-[3-(6-methyl-pyridin-2-yl)-propionyl]-1,2,3,4-tetrahydro-isoquinolin-8-yl}-4-(2,2,2-trifluoro-ethoxy)-phenyl]-acetic acid] | 12.6 nM
24 | COc1ccc(CC(=O)O)cc1-c1ccc(Cl)c2c1CN(C(=O)CCn1ncc3ccccc31)CC2 [Example 72, {3-[5-Chloro-2-(3-indazol-1-yl-propionyl)-1,2,3,4-tetrahydro-isoquinolin-8-yl]-4-methoxy-phenyl}-acetic acid] | 37.8 nM
25 | COc1ccc(CC(=O)O)cc1-c1ccc(F)c2c1CN(C(=O)NCc1ccccc1)CC2 [Example 136, [3-(2-Benzylcarbamoyl-5-fluoro-1,2,3,4-tetrahydro-isoquinolin-8-yl)-4-methoxy-phenyl]-acetic acid] | 30.6 nM
26 | Cc1ccc(CC(=O)O)cc1-c1ccc(F)c2c1CN(C(=O)OCc1ccccc1)CC2 [Example 7, 8-(5-Carboxymethyl-2-methyl-phenyl)-5-fluoro-3,4-dihydro-1H-isoquinoline-2-carboxylic acid benzyl ester] | 25.6 nM
27 | O=C(O)COc1ccc(Cl)c(-c2ccc(Cl)c3c2CN(C(=O)OCc2ccccc2)CC3)c1 [Example 178, 8-(5-Carboxymethoxy-2-chloro-phenyl)-5-chloro-3,4-dihydro-1H-isoquinoline-2-carboxylic acid benzyl ester] | 17.5 nM
28 | C[C@@H](CC(=O)N1CCc2c(F)ccc(-c3ccc(CC(=O)O)cc3OCC(F)(F)F)c2C1)c1ccccc1 [Example 287, [4-[5-Fluoro-2-((S)-3-phenyl-butyryl)-1,2,3,4-tetrahydro-isoquinolin-8-yl]-3-(2,2,2-trifluoro-ethoxy)-phenyl]-acetic acid] | 8.1 nM
29 | COc1ccc(CC(=O)O)cc1-c1ccc(F)c2c1CN(C(=O)CCc1cccc(C)n1)CC2 [Example 92, (3-{5-Fluoro-2-[3-(6-methyl-pyridin-2-yl)-propionyl]-1,2,3,4-tetrahydro-isoquinolin-8-yl}-4-methoxy-phenyl)-acetic acid] | 15.7 nM
30 | COc1ccc(CC(=O)O)cc1-c1ccc(F)c2c1CN(C(=O)COc1cccnc1)CC2 [Example 94, (3-{5-Fluoro-2-[2-(pyridin-3-yloxy)-acetyl]-1,2,3,4-tetrahydro-isoquinolin-8-yl}-4-methoxy-phenyl)-acetic acid] | 418 nM
31 | COc1ccc(OC(C)C(=O)O)cc1-c1ccc(F)c2c1CN(C(=O)OCc1ccccc1)CC2 (racemic) [Example 414] | 430 nM
32 | CCOc1ccc(CC(=O)O)cc1-c1ccc(F)c2c1CN(C(=O)CCc1ccccc1F)CC2 [Example 312, (4-Ethoxy-3-{5-fluoro-2-[3-(2-fluoro-phenyl)-propionyl]-1,2,3,4-tetrahydro-isoquinolin-8-yl}-phenyl)-acetic acid] | 4.8 nM
33 | COc1ccc(CC(=O)O)cc1-c1ccc(F)c2c1CN(C(=O)Cc1cn(C)c3ccccc13)CC2 [Example 119, (3-{5-Fluoro-2-[2-(1-methyl-1H-indol-3-yl)-acetyl]-1,2,3,4-tetrahydro-isoquinolin-8-yl}-4-methoxy-phenyl)-acetic acid] | 69.5 nM
34 | COc1ccc(CC(=O)O)cc1-c1ccc(F)c2c1CN(C(=O)C(C)Cc1cccnc1)CC2 (racemic) [Example 343] | 291 nM
35 | CCOc1ccc(CC(=O)O)cc1-c1ccc(F)c2c1CN(C(=O)C(C)Cc1ccccc1)CC2 (centres unmarked) [Example 213] | 111 nM
